One molecule from BindingDB's records for doi:10.7270/Q2902274 (Burnham Center For Chemical Genomics, 2010) can be followed below.

The target in this assay is Eukaryotic translation initiation factor 4H (Homo sapiens, UniProt Q15056). Put plainly: eIF4H inhibition in translation initiation, SAR follow-up (AID 435011).

Molecules are shown by their SMILES. Where only a bound is given, the exact number is not on record here.

As for `COc1cc([CH+][N-]NC(=O)c2ccc(O)cc2)ccc1OCC(=O)Nc1cccc([N+](=O)[O-])c1`, the IC50 was over 100 µM.
